Experimental data published in patent US7297704B2, “Cycloalkyfused indole, benzothiophene, benzofuran and idene derivatives” (Wyeth, priority 2005, dated 2007).
Counter-ions that a name gives are not always drawn. Like-named read-outs stand apart in the source and are kept apart here.

Assays:
serotonin transporter = biological target: T1, serotonin transporter (Rattus norvegicus, UniProt P31652); assay: 3H-paroxetine binding to the serotonin transporter, rat frontal cortical membranes; conditions: values printed without parentheses, 3H-paroxetine 0.1 nM, read-out: rb-5-HH-T, Ki
T1 construct: frontal cortical membranes prepared from male S.D. rats; from tissue; host or cells: rat frontal cortex membranes (male Sprague-Dawley)
T1 sequence (P31652 whole entry): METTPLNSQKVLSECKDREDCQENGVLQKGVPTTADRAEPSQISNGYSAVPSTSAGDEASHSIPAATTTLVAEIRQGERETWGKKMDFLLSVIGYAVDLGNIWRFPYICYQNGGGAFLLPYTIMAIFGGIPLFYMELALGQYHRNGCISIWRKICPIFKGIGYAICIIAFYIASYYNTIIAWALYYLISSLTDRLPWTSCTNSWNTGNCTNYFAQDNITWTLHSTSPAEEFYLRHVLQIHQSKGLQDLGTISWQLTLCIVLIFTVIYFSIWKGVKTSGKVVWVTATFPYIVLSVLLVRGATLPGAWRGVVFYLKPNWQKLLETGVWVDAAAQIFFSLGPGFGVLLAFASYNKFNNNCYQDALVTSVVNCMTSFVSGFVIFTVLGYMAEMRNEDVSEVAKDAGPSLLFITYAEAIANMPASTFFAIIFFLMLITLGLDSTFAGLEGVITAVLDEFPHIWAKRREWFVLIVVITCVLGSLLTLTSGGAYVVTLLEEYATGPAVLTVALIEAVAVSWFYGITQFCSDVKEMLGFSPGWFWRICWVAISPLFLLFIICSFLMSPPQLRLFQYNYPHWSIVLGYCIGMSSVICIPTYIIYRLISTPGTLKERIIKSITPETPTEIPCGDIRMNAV
Method: A protocol similar to that used by Cheetham et al. (Neuropharmacol. 32:737, 1993) was used to determine the affinity of compounds for the serotonin transporter. Briefly, frontal cortical membranes prepared from male S.D. rats were incubated with ^3H-paroxetine (0.1 nM) for 60 min at 25° C. All tubes also contained either vehicle, test compound (one to eight concentrations), or a saturating concentration of fluoxetine (10 μM) to define […]. All reactions are terminated by the addition of ice cold Tris buffer followed by rapid filtration using a Tom Tech filtration device to separate bound from free ^3H-paroxetine. Bound radioactivity was quantitated using a Wallac 1205 Beta Plate® counter. Nonlinear regression analysis was used to determine IC50 values which were converted to Ki values using the method of Cheng and Prusoff (Biochem. Pharmacol. 22: 3099, 1973); […].

Human 5-HT1A Receptor [1] = biological target: T2, Human 5-HT1A Receptor (Homo sapiens, UniProt P08908); assay: 8-OH-DPAT binding, human 5-HT1A receptor cell line; conditions: stably transfected CHO cells, 8-OH-DPAT ligand 1.5 nM; read-out: h5-HT1A Affinity, Ki
T2 construct: expressed in transfected cells; host or cells: CHO cells
T2 sequence (P08908 1-422): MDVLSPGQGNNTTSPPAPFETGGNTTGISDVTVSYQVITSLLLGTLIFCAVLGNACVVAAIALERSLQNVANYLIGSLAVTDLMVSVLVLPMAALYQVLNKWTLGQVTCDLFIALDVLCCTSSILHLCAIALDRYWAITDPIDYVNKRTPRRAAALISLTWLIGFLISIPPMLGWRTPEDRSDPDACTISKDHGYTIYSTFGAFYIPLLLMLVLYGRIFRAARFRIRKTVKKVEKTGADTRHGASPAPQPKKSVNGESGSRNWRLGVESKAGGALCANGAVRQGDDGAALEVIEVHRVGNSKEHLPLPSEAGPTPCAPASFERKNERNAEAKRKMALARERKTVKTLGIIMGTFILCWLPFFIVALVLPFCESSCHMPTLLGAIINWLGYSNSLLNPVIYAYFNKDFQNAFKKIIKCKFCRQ
Method: Stably transfected CHO cells were grown in DMEM containing 10% heat inactivated FBS and non-essential amino acids. Cells were scraped off the plate, transferred to centrifuge tubes, and washed twice by centrifugation (2000 rpm for 10 min., 4° C.) in buffer (50 mM Tris, pH 7.5). The resulting pellets were aliquoted and placed at −80° C. On day of assay, the cells were thawed on ice, and resuspended in buffer. The binding assay was performed in a 96 well microtiter plate in a total volume of […]. Non-specific binding was determined in the presence of […] 5HT; final ligand concentration was 1.5 nM. Following a 30 min. incubation at room temperature, the reaction was terminated by the addition of ice cold buffer and rapid filtration through a GF/B filter presoaked for 30 min. in 0.5% PEI. Compounds were initially tested in a single point assay to determine percent inhibition at […]. Subsequently, Ki values were determined for compounds defined to be active. Percent inhibition Ki was determined by RFComp (Lundon Software), with Serotonin 8-OH-DPAT as the reference compounds.

h-5-HT-T = h-5-HT-T (Homo sapiens, UniProt P31645); assay: h-5-HT-T IC50 (Table 1, no method described)
h-5-HT-T, sequence (P31645 whole entry): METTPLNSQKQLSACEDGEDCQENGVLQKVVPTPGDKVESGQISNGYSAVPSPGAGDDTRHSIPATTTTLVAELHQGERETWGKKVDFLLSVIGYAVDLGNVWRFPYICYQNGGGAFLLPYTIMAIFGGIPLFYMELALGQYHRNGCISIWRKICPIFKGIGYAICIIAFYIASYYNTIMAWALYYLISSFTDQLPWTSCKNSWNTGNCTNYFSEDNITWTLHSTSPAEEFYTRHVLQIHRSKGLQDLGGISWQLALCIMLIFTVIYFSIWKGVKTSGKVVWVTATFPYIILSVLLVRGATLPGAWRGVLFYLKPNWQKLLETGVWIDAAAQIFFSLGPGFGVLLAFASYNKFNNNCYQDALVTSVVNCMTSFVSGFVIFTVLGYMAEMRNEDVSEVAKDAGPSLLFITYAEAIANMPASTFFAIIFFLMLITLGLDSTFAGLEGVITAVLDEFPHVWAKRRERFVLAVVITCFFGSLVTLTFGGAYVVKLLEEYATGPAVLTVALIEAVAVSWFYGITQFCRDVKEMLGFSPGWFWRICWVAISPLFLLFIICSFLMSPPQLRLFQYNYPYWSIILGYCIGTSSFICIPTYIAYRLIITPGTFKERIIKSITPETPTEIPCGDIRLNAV

Human 5-HT1A Receptor [2] = biological target: T2, Human 5-HT1A Receptor; assay: cAMP RIA in human 5-HT1A receptor cell line; type: cell-based; conditions: CHO cells; for Emax: superscript c, read-out: c-AMP, (Emax)^c; for Emax / EC50: forskolin stimulated cAMP; for EC50: superscript a, read-out: c-AMP, (EC50)^a; for IC50: superscript b, reversal of agonist activity, read-out: c-AMP, (IC50)^b
Method: Stably transfected CHO cells were grown in DMEM containing 10% heat inactivated FBS and non-essential amino acids. The cells were plated at a density of 10^6 cells per well in a 96 well plate and incubated for 2 days in a CO2 incubator. On the second day, the media was replaced with 0.1 ml Krebs and incubated 15 minutes at 37° C. The media was then replaced with Krebs buffer containing 500 uM IBMX and incubated 5 minutes at 37° C. Wells were treated with forskolin (1 uM final conc) followed immediately by test compound (0.1 and 1 uM for initial screen) and incubated for an additional 10 min at 37° C. Reaction was terminated by removal of the media and addition of 0.5 ml ice cold assay buffer (supplied in RIA kit). Plates are stored at −20° C. prior to assessment of cAMP formation by RIA. Compounds shown to have no agonist activities were further analyzed for ability to reverse agonist activity. In separate experiments, 6 concentrations of antagonist were preincubated for 20 min prior to the addition of agonist and forskolin. Cells were harvested as described. The cAMP kit is supplied by Amersham and the RIA is performed as per kit instructions. In the initial screen, percent inhibition of forskolin stimulated cAMP was measured. In the secondary screen, IC50 of reversal of agonist activity was measured. Calculations of IC50 were performed by GraphPad Prism. Serotonin, BMY 7378, Buspirone, and 8-OH-DPAT were used as reference compounds.

| SMILES | Ki (serotonin transporter) [nM] | Ki (Human 5-HT1A Receptor [1]) [nM] | IC50 (h-5-HT-T) [nM] | Emax (Human 5-HT1A Receptor [2]; CHO) [%] | EC50 (Human 5-HT1A Receptor [2]) [nM] | IC50 (Human 5-HT1A Receptor [2]) [nM] | Emax (Human 5-HT1A Receptor [2]) [%] |
| --- | --- | --- | --- | --- | --- | --- | --- |
| Cc1ccc2c3c(ccc2n1)OC[C@H](CNC1CCc2c([nH]c4ccc(F)cc24)C1)O3 (mixture of isomers) [Example 46, 6-Fluoro-N-{[(2S)-8-methyl-2,3-dihydro[1,4]dioxino[2,3-f]quinolin-2-yl]methyl}-2,3,4,9-tetrahydro-1H-carbazol-2-amine] | 8.55 | 231 | 52.5 ± 1.73 | 70 | 155 |  |  |
| Cc1ccc2c3c(ccc2n1)OC[C@H](CNCC1CCc2sc4ccccc4c2C1)O3 (single isomer, unassigned) [32 diastereomer 2] | 47.6 | 6.49 | 885 |  |  | 17.7 |  |
| Cc1ccc2c3c(ccc2n1)OC[C@H](CN[C@@H]1CCc2c([nH]c4ccccc24)C1)O3 (single isomer, unassigned) [Example 44, dihydrochloride] |  | 620 | 22.1 ± 2.51 |  | 225 |  | 74 |
| Cc1ccc2c3c(ccc2n1)OC[C@H](CN[C@@H]1CCc2c([nH]c4ccc(F)cc24)C1)O3 (single isomer, unassigned) [Example 47, dihydrochloride] | 12.8 | 186 | 102 ± 7.07 |  | 300 |  | 59 |
| Cc1ccc2c3c(ccc2n1)OC[C@H](CN[C@H]1CCc2c([nH]c4ccc(F)cc24)C1)O3 (single isomer, unassigned) [Example 48, dihydrochloride] | 46.7 ± 2.07 | 7.4 | 31.9 ± 5.34 |  |  | 168 |  |
| CCCN(CC1CCc2[nH]c3ccc(F)cc3c2C1)C[C@H]1COc2ccc3nc(C)ccc3c2O1 (stereo partly drawn) [Example 51, N-[(6-Fluoro-2,3,4,9-tetrahydro-1H-carbazol-3-yl)methyl]-N-{[(2S)-8-methyl-2,3-dihydro[1,4]dioxino[2,3-f]quinolin-2-yl]methyl}propan-1-amine dihydrochloride dihydrate] | 88 | 1290 | 22.3 ± 3.32 |  | 171 |  | 59 |
| Cc1ccc2c3c(ccc2n1)OC[C@H](CN(CC1CCc2[nH]c4ccc(F)cc4c2C1)C1CCC1)O3 (stereo partly drawn) [Example 53, N-[(6-Fluoro-2,3,4,9-tetrahydro-1H-carbazol-3-yl)methyl]-N-{[(2S)-8-methyl-2,3-dihydro[1,4]dioxino[2,3-f]quinolin-2-yl]methyl}cyclobutanamine dihydrochloride dihydrate] | 498 | 5740 | 39.1 ± 3.85 |  | 126 |  | 68 |
| Cc1ccc2c3c(ccc2n1)OC[C@H](CN(C[C@@H]1CCc2[nH]c4ccc(F)cc4c2C1)C(C)C)O3 [Example 57, N-{[(3R)-6-Fluoro-2,3,4,9-tetrahydro-1H-carbazol-3-yl]methyl}-N-{[(2S)-8-methyl-2,3-dihydro[1,4]dioxino[2,3-f]quinolin-2-yl]methyl}propan-2-amine monohydrochloride monohydrate] | 1570 | 6140 | 1130 ± 109 |  |  |  |  |
| CCC(C)N(C[C@@H]1CCc2[nH]c3ccc(F)cc3c2C1)C[C@H]1COc2ccc3nc(C)ccc3c2O1 (stereo partly drawn) [Example 58, N-{[(3R)-6-Fluoro-2,3,4,9-tetrahydro-1H-carbazol-3-yl]methyl}-N-{[(2S)-8-methyl-2,3-dihydro[1,4]dioxino[2,3-f]quinolin-2-yl]methyl}butan-2-amine monohydrochloride monohydrate] | 358 | 1190 | 113 ± 22.5 |  |  |  | 22 |
| Cc1ccc2c3c(ccc2n1)OC[C@H](CN(C[C@@H]1CCc2[nH]c4ccc(F)cc4c2C1)C1CCCC1)O3 [Example 59, N-{[(3R)-6-Fluoro-2,3,4,9-tetrahydro-1H-carbazol-3-yl]methyl}-N-{[(2S)-8-methyl-2,3-dihydro[1,4]dioxino[2,3-f]quinolin-2-yl]methyl}cyclopentanamine monohydrochloride monohydrate] | 362 | 3120 | 115 ± 16.4 |  | 431 |  | 81 |
| Cc1ccc2c3c(ccc2n1)OC[C@H](CN(C[C@@H]1CCc2[nH]c4ccc(F)cc4c2C1)C1CCCCC1)O3 [Example 60, N-{[(3R)-6-fluoro-2,3,4,9-tetrahydro-1H-carbazol-3-yl]methyl}-N-{[(2S)-8-methyl-2,3-dihydro[1,4]dioxino[2,3-f]quinolin-2-yl]methyl}cyclohexanamine monohydrochloride monohydrate] | 394 |  | 995 ± 24.4 |  |  |  |  |
| CCC(C)N(C[C@H]1CCc2[nH]c3ccc(F)cc3c2C1)C[C@H]1COc2ccc3nc(C)ccc3c2O1 (stereo partly drawn) [Example 62, N-{[(3S)-6-Fluoro-2,3,4,9-tetrahydro-1H-carbazol-3-yl]methyl}-N-{[(2S)-8-methyl-2,3-dihydro[1,4]dioxino[2,3-f]quinolin-2-yl]methyl}butan-2-amine monohydrochloride monohydrate] |  | 1960 | 730 ± 9.19 |  |  |  |  |
| Cc1ccc2c3c(ccc2n1)OC[C@H](CN(C[C@H]1CCc2[nH]c4ccc(F)cc4c2C1)C1CCCC1)O3 [Example 63, N-{[(3S)-6-Fluoro-2,3,4,9-tetrahydro-1H-carbazol-3-yl]methyl}-N-{[(2S)-8-methyl-2,3-dihydro[1,4]dioxino[2,3-f]quinolin-2-yl]methyl}cyclopentanamine monohydrochloride monohydrate] | 113 |  | 389 ± 38.2 |  | 1350 |  | 73 |
| Cc1ccc2c3c(ccc2n1)OC[C@H](CN(C[C@H]1CCc2[nH]c4ccc(F)cc4c2C1)C1CCCCC1)O3 [Example 64, N-{[(3S)-6-Fluoro-2,3,4,9-tetrahydro-1H-carbazol-3-yl]methyl}-N-{[(2S)-8-methyl-2,3-dihydro[1,4]dioxino[2,3-f]quinolin-2-yl]methyl}cyclohexanamine monohydrochloride monohydrate] | 455 |  | 2490 ± 269 |  |  |  |  |
| Cc1ccc2c3c(ccc2n1)OC[C@H](CN(C)C[C@H]1CCc2c(c4cc(F)ccc4n2C)C1)O3 [Example 68, {[(3S)-6-Fluoro-9-methyl-2,3,4,9-tetrahydro-1H-carbazol-3-yl]methyl}methyl{[(2S)-8-methyl-2,3-dihydro[1,4]dioxino[2,3-f]quinolin-2-yl]methyl}amine monohydrochloride monohydrate] | 293 | 3720 | 15.2 ± 0.74 |  |  |  | 34.8 |
